# Experimental data as given in PMC7463712, “Cholesterol as an Endogenous Ligand of ERRα Promotes ERRα-Mediated Cellular Proliferation and Metabolic Target Gene Expression in Breast Cancer Cells” (Cells, 2020).
# pKd: −log10 of the molar value.
# Biological target: T1, estrogen-related receptor alpha (ERRα; NR3B1) (Homo sapiens, UniProt P11474)
# T1 construct: gene ESRRA
# T1 sequence (P11474 193-423 limits assumed): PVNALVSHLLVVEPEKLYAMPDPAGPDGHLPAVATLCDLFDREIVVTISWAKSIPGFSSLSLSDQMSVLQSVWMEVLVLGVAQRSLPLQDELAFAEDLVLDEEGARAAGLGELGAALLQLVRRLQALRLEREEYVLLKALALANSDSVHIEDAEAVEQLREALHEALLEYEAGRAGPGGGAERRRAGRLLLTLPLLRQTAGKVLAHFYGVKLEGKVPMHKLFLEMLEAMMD
# Assay: tryptophan fluorescence quenching; GST pull-down with LC-MS/MS
# Format: binding
compound,measurement,value
CC(C)CCC[C@@H](C)[C@H]1CC[C@H]2[C@@H]3CC=C4C[C@@H](O)CC[C@]4(C)[C@H]3CC[C@]12C [cholesterol],pKd,6.67
